Where two headings read alike, the source gives them in different places.

The text below walks through data of publication PMC12049818, “Identification of NUV-244 as a PNPLA3 I148M degrading small molecule” (iScience, 2025).

The target in one assay is T1, PNPLA3 I148M-tagRFP (Homo sapiens, UniProt Q9NST1, I148M).
T1 construct: host or cells: Huh7
T1 sequence (Q9NST1 1-481 I148M): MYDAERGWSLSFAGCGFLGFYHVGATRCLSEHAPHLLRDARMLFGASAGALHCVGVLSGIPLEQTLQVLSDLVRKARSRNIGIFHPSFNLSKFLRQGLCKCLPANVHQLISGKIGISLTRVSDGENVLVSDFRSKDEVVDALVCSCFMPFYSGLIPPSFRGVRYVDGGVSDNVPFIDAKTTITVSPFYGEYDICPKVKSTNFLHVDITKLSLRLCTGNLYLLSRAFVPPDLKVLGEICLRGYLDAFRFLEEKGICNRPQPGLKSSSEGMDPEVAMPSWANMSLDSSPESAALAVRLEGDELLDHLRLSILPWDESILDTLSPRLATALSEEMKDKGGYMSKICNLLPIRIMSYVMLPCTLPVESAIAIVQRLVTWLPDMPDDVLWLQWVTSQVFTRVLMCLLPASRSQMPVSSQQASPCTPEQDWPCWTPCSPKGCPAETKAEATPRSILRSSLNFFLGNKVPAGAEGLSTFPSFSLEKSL
In words: Western blot anti-PNPLA3, Huh7 PNPLA3 I148M-tagRFP. Format: cell-based. The note with it: 5µM, 24h. The procedure: For SDS-PAGE and subsequent western blotting cells were harvested in 1x lysis buffer (50 mM Tris-Cl, pH 7.5, 150 mM NaCl, 1 mM EDTA, 1% Triton X-100) supplemented with complete mini protease inhibitor cocktail (Roche). Total protein concentration of samples was determined with a Bicinchoninic Acid (BCA) protein assay. Cell lysates were boiled for 10 min at 99°C with 1x NuPAGE LDS Sample Buffer and loaded onto a 4-12% Tris-Glycine SDS-PAGE gel. For immunoblotting proteins were transferred to a nitrocellulose membrane (0.2 μm pore size, Schleicher & Schuell) and blocked with Intercept (PBS) Blocking buffer (Licor), incubated with primary antibodies anti-PNPLA3 (1:500, C-8 Santa Cruz, SC-390252), anti-PNPLA3 (1:1000, Millipore, MABS2174) and anti-HSP90 (1:1000, Cell Signaling, #4877), and subsequently incubated with secondary antibodies IRDye 680 or IRDye 800 (1:2000; LI-COR Biosciences). Infrared signal was detected using the Odyssey imaging system (Licor). […]
a. Huh7, PNPLA3 I148M b. Huh7, PNPLA3 I148M-tagRFP […]
control NUV-244 control NUV-244
Supplemental Fig. 9: Western Blot NUV-244 a. […] PNPLA3 bands at 53kDa (unmodified in a.) or 80 kDa (PNPLA3 I148M-tagRFP) were quantified (signal above local background, normalized to loading control using LICOR Odyssey CLx / Image Studio) on two independent Western Blots and percent of intensity compared to DMSO controls calculated (Mean +/ - Stdev). […]
A general note: In western blotting, separated proteins are transferred to a membrane and probed.

A further assay addresses T2, PNPLA2 (Homo sapiens, UniProt Q96AD5).
T2 sequence (Q96AD5 1-504): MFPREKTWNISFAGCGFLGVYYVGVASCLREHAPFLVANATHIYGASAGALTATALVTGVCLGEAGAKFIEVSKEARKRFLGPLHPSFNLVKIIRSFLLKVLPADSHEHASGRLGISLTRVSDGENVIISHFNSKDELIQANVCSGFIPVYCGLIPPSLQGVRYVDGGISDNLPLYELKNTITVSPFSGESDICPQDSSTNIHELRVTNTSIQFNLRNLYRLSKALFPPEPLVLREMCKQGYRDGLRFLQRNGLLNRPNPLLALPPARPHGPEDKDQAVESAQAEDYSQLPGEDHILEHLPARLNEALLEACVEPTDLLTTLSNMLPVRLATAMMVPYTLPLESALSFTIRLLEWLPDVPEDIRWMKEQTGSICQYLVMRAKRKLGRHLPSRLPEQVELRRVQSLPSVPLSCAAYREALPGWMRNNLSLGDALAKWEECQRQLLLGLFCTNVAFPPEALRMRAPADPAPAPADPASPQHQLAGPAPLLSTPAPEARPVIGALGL
Briefly: Huh7 PNPLA2 immunofluorescence counter assay (PNPLA2 on lipid droplets). Format: cell-based. Further details: immunofluorescence against endogenous PNPLA2 on lipid droplets in Huh7 cells; endogenous in cells; host or cells: Huh7. The note with it: for EC50: read-out: EC50 Huh7, PNPLA2 IF. The procedure: These efforts led to the identification of NUV-244, a thiazolecarboxamide (Figure 2A).
Cells were fixed with 4% paraformaldehyde for 15 minutes at room temperature. Cells were blocked with 0.2 M glycine, 0.1 mg/mL saponin, and 30 mg/mL bovine serum albumin (BSA) (all Sigma Aldrich) in PBS for 1 hour. Cells were washed 1x with washing buffer (0,1 mg/ml saponin + 1 mg/ml Bovine serum albumin) using a Blue Washer (Blue Cat Bio). Mouse anti-human ADPN (PNPLA3, C-8, #sc-390252, Santa Cruz) and rabbit anti-human PNPLA2 (Sigma Aldrich, #HPA055173-25UL) primary antibodies and appropriate secondary antibodies conjugated with Alexa-Fluor 647 (Jackson ImmunoResearch) were used. All antibodies were diluted in 0.1 mg/ml Saponin + 1 mg/ml Bovine serum albumin. Incubation with primary antibodies was over night at 4°C. Cells were stained simultaneously with the secondary antibody and Hoechst 33342 (final 2 μg/ml, Biotium) for 1h at room temperature in the dark. For Staining of lipid droplets 38 nM BODIPY was used for 30 minutes at room temperature.
Images were acquired by an Opera Phenix confocal spinning disc microscope system (Revvity, Waltham, MA, USA) with a 20x or 40x water objective at 405 nm (Hoechst), 488 nm (BODIPY) and 647 nm. Quantification was carried out with the Harmony (Revvity, Waltham, MA, USA) or MetaXpress software (Molecular Devices). Normalization, quality control, and fitting curves for EC50 determination of tested compounds were performed with Genedata Screener® for high-content screening and Genedata Condoseo modules (Genedata AG, Basel, Switzerland).

A word on the EC50: it is the midpoint of the concentration-response curve. `Cc1cccc(Cc2nc(C)c(C(=O)Nc3cc(O)ccc3Cl)s2)c1` [NUV-244]: the “PNPLA3 band intensity printed on the blot shown (DMSO 100%)” value on PNPLA3 I148M-tagRFP (single blot shown in Fig. S9b) is recorded as 72%. In addition, the “PNPLA3 band, percent of intensity compared to DMSO controls” value at PNPLA3 I148M-tagRFP (two independent Western Blots, Mean +/- Stdev) is on record as 46+/-4%. In addition, on PNPLA2 (1μM, Huh7), the “effect on PNPLA2 staining on lipid droplets” value was “no effect”. The EC50 was above 18 µM on PNPLA2 (HTS batch (hit)) and above 17 µM at PNPLA2 (resynthesis batch). Further, the “effect on PNPLA2 localization to lipid droplets” value at PNPLA2 (Huh7 cells, dose-response) is given as “no effect”. Besides, the “EC50 Huh7 PNPLA2 IF (resynthesis)” value at PNPLA2 (resynthesis batch, result in words) is on record as “no activity”.
